Experimental data reported in PMC5643462, “Encrypted Antimicrobial Peptides from Plant Proteins” (Scientific Reports, 2017).
Values after ≈ are worked out from the molar mass of the structure shown. Read-outs that look alike come from different tables or passages of the source. No end group written: not given here.

What was measured:
human red blood cells = experiment: Cytotoxicity: hemolysis of human red blood cells; type: cell-based; details: for Concentration that induced 50% hemolysis: red cells of human
Description: The cytotoxicity of the selected IAPS was performed using human red blood cells in strict accordance with relevant guidelines and regulations (Ethical committee – UnB # 1.939.989). Different concentrations of IAPs (128 µM–0.5 µM) were incubated with a final concentration of 2.5 × 10^5 red blood cells.mL^−1. Briefly, 100 µL of red blood cells was incubated with 100 µL of different concentrations of each IAP, prepared in PBS, for 30 minutes at 37 °C, with constant shaking at 120 rpm. PBS and Triton X-100 0.1% (v/v) were used as negative and positive controls, respectively. After incubation, the solution was centrifuged at 900 × g for five minutes followed by transferring 50 µL of the supernatant to flat-bottom polystyrene 96-well micro plates containing 50 µL of PBS. Microplate reading was performed at a BioTek Multireader, using a wavelength of 540 nm. All tests were performed in 3 biological replicates, composed of 3 biological repetitions each. The obtained data was subtracted by the negative control and relative to the positive control, defined as 100% lysis.

Bacillus subtilis = experiment: microbe, parasite or virus in culture; details: ATCC 23857; Mueller-Hinton; 37 °C, 24 h; start 5.0 x 10^5 cells; 256-0.5 µM; mean ± SD of 3 biological repetitions (SD 0 not displayed); N/A = no antimicrobial activity observed
Description: (§1) The susceptibility test of microorganisms was performed to evaluate the inhibitory activity of the IAPs. Protocols M7-A10[50], M27-A3[51] and M38-A2[52] from Clinical & Laboratory Standards Institute (CLSI) were used for bacteria, yeasts and filamentous fungi tests, respectively. Briefly, different concentration of IAPs (256-0.5 µM) were tested against 16 microorganisms, in a final volume of 100 µL. Media conditions, final cell concentration and incubation conditions are presented in Supplementary Material 07, Table S5. Three biological repetitions, with 2 technical replicates each, were performed for each test, on polystyrene flat-bottom 96 wells microplates. The minimum inhibitory concentration (MIC) was defined as the concentration that no cells/hyphae were detected when visualized by optical microscopy.
(§2) Supplementary Material 07, Table S5
(§3) Table S5. Microorganisms and growth conditions.

Bacillus cereus = experiment: microbe, parasite or virus in culture; details: ATCC 14579; Mueller-Hinton; 37 °C, 24 h; start 5.0 x 10^5 cells; 256-0.5 µM; mean ± SD of 3 biological repetitions (SD 0 not displayed); N/A = no antimicrobial activity observed
Description: as §1, §2, §3

Escherichia coli = experiment: microbe, parasite or virus in culture; details: ATCC 25922; Mueller-Hinton; 37 °C, 24 h; start 5.0 x 10^5 cells; 256-0.5 µM; mean ± SD of 3 biological repetitions (SD 0 not displayed); N/A = no antimicrobial activity observed
Description: as §1, §2, §3

Cryptococcus neoformans = experiment: microbe, parasite or virus in culture; details: for Minimum inhibitory concentration, Cryptococcus neoformans: ATCC 28957, RPMI 1640 pH 7.0, 37 °C, 72 h, start 2.5 x 10^3 cells, 256-0.5 µM, mean ± SD of 3 biological repetitions (SD 0 not displayed), N/A = no antimicrobial activity observed
Description: as §1, §2, §3

Staphylococcus aureus = experiment: microbe, parasite or virus in culture; details: ATCC 25923; Mueller-Hinton; 37 °C, 24 h; start 5.0 x 10^5 cells; 256-0.5 µM; mean ± SD of 3 biological repetitions (SD 0 not displayed); N/A = no antimicrobial activity observed
Description: as §1, §2, §3

Pseudomonas aeruginosa = experiment: microbe, parasite or virus in culture; details: ATCC 27853; Mueller-Hinton; 37 °C, 24 h; start 5.0 x 10^5 cells; 256-0.5 µM; mean ± SD of 3 biological repetitions (SD 0 not displayed); N/A = no antimicrobial activity observed
Description: as §1, §2, §3

Candida albicans = experiment: microbe, parasite or virus in culture; details: for Minimum inhibitory concentration, Candida albicans: ATCC 90028, RPMI 1640 pH 7.0, 37 °C, 48 h, start 2.5 x 10^3 cells, 256-0.5 µM, mean ± SD of 3 biological repetitions (SD 0 not displayed), no cells seen by optical microscopy, N/A = no antimicrobial activity observed
Description: as §1, §2, §3

[1] = tested on: Moniliophthora perniciosa basidiospores; experiment: Inhibition of M. perniciosa basidiospore germination; type: cell-based; details: 1 × 10^6 basidiospores mL^−1, one hour with peptide (256-0.5 µM), 24 °C, counted after 4 hours on agar slides, biological triplicates; for IC50: concentration at which at least 50% of basidiospores germination was inhibited, read-out: Inhibitory concentration IC50, M. perniciosa basidiospores germination; for Inhibitory concentration IC95, M. perniciosa basidiospores germination: concentration at which at least 95% of basidiospores germination was inhibited
Description: The antimicrobial potential of T. cacao IAPs for inhibiting M. perniciosa basidiospores was evaluated. Briefly, 1 × 10^6 basidiospores mL^−1 were incubated for one hour with different concentrations of T. cacao IAPs (256-0.5 µM), at 24 °C, in a final volume of 100 µL. Autoclaved dH20 was used as a control. After incubation, 3 droplets of 10 µL each were placed in a slide coated with agar (1.2% (w/v)). Slides were incubated for 4, 24 and 48 hours at 24 °C. Slides were visualized using a DMRXA light microscope (Leica). Approximately 150–200 basidiospores per droplet from each time point were counted and compared to the control condition, which was defined as 100% germination. All experiments were performed in biological triplicates, with 3 technical repetitions each.

Compound | Hemolytic activity (% ± SD) at 1 µM (human red blood cells) [%] | Hemolytic activity (% ± SD) at 2 µM (human red blood cells) [%] | Hemolytic activity (% ± SD) at 4 µM (human red blood cells) [%] | Hemolytic activity (% ± SD) at 8 µM (human red blood cells) [%] | Hemolytic activity (% ± SD) at 16 µM (human red blood cells) [%] | Hemolytic activity (% ± SD) at 32 µM (human red blood cells) [%] | Hemolytic activity (% ± SD) at 64 µM (human red blood cells) | Hemolytic activity (% ± SD) at 128 µM (human red blood cells) [%] | Hemolytic activity of human red blood cells (%) SC50 (human red blood cells) [µM] | Minimum inhibitory concentration, Bacillus subtilis (Bacillus subtilis) [µM] | Minimum inhibitory concentration, Bacillus cereus (Bacillus cereus) [µM] | Minimum inhibitory concentration, Escherichia coli (Escherichia coli) [µM] | Minimum inhibitory concentration, Cryptococcus neoformans (Cryptococcus neoformans) [µM] | Minimum inhibitory concentration, Staphylococcus aureus (Staphylococcus aureus) [µM] | Minimum inhibitory concentration, Pseudomonas aeruginosa (Pseudomonas aeruginosa) [µM] | Minimum inhibitory concentration, Candida albicans (Candida albicans) [µM] | IC50 [1] [µM] | Inhibitory concentration IC95, M. perniciosa basidiospores germination [1] [µM] | other results
GSLHGFMYRYLKNMVLNLF-NH2 [Cs01] | 0.10 ± 0.04 | 0.05 ± 0.03 | 0.01 ± 0.00 | 0.09 ± 0.01 | 0.27 ± 0.09 | 0.31 ± 0.15 | 2.18 ± 1.62% | 8.01 ± 2.16 | >128 | 8.0 | 64.0 | 32.0 | 8.0 | 4.0 | 32.0 | 2.67 ± 1.15 |  |  | 
GKILKYLLYLLRKYANLIIR-NH2 [Tc02] | 0.00 ± 0.00 | 0.00 ± 0.00 | 0.40 ± 0.26 | 2.89 ± 1.12 | 6.30 ± 1.59 | 17.39 ± 1.15 | 29.15 ± 2.57% | 50.15 ± 5.15 | 64 |  |  |  |  |  |  |  | 8 | 16 | Concentration that induced 50% hemolysis (human red blood cells): 64 µM
OC(Cn1cncn1)(Cn1cncn1)c1ccc(F)cc1F [Fluconazole, reference compound] |  |  |  |  |  |  |  |  |  |  |  |  |  |  |  |  |  |  | MIC (Cryptococcus neoformans; Cryptococcus neoformans, ATCC28957, 72 h, pH 7, read-out: Minimum inhibitory concentration, Cryptococcus neoformans): 1.63 µM (≈ 0.499 µg/mL); MIC (Candida albicans; Candida albicans, ATCC90028, 48 h, pH 7, read-out: Minimum inhibitory concentration, Candida albicans): 1.63 µM (≈ 0.499 µg/mL)
IVNHLVKLFDKGLNSIVNLR-NH2 [Tc05] | 0.11 ± 0.02 | 0.07 ± 0.01 | 0.15 ± 0.05 | 0.07 ± 0.04 | 0.50 ± 0.10 | 0.21 ± 0.09 | 0.78 ± 0.47% |  |  |  |  |  |  |  |  |  | 128 | 256 | Hemolytic activity of human red blood cells (%) SC50 (human red blood cells; SC50 = IAP concentration that at least 50% of red blood cells remain intact, 128 µM–0.5 µM tested, PBS, 30 minutes, 37 °C, absorbance 540 nm): >128 µM
GFKLGRKLVKVFKWII-NH2 [Gr01] | 0.09 ± 0.01 | 0.00 ± 0.00 | 0.30 ± 0.15 | 1.96 ± 0.89 | 3.82 ± 1.28 | 11.33 ± 1.66 | 33.9 9 ± 5.46% | 51.72 ± 7.33 | 64 | 1.0 | 1.0 | 0.5 | 1.0 | 0.83 ± 0.29 | 3.33 ± 1.15 | 1.0 |  |  | Concentration that induced 50% hemolysis (human red blood cells): 64 µM
GLLFKELQKLIRYQIFIGK-NH2 [Tc10] | 0.00 ± 0.0 | 0.00 ± 0.0 | 0.18 ± 0.04 | 0.06 ± 0.02 | 0.00 ± 0.00 | 0.23 ± 0.10 | 0.68 ± 0.17% | 4.56 ± 0.58 | >128 |  |  |  |  |  |  |  | 32 | 64 | 
GSLHGFMYKYLKTLVLRLY-NH2 [Zm01] | 0.00 ± 0.00 | 0.02 ± 0.00 | 0.00 ± 0.00 | 0.00 ± 0.00 | 0.66 ± 0.14 | 2.45 ± 1.03 | 6.56 ± 1.87% | 15.72 ± 3.48 | >128 | 8.0 | 64.0 | 13.33 ± 4.61 | 4.0 | 16 | 16.0 | 6.67 ± 2.31 |  |  | 
